Laboratory results reported in ChEMBL document CHEMBL2424555, “Discovery of novel 4-anilinoquinazoline derivatives as potent inhibitors of epidermal growth factor receptor with antitumor activity” (Bioorg Med Chem, 2013).
Activity calls are given as the source filed them. The calls are words filed in the database; no cut-off is given here.

Test system: A549
Assay: Induction of apoptosis in human A549 cells assessed as nuclear convolution and budding off into several fragments at 5 to 20 uM after 24 hrs by Hoechst 33258 staining-based fluorescence microscopy relative to control
Assay type: functional, cell-based
Conditions: not given

For `Clc1cccc(Nc2ncnc3ccc(NCc4ccc(Br)s4)cc23)c1`, the Activity was “Active”.

Test system: A549
Assay: Induction of apoptosis in human A549 cells assessed as nuclear convolution and budding off into several fragments after 24 hrs by Hoechst 33258 staining-based fluorescence microscopy relative to control
Assay type: functional, cell-based
Conditions: not given

For `Clc1cccc(Nc2ncnc3ccc(NCc4ccc(Br)s4)cc23)c1`, the Activity was “Dose-dependent effect”.

Molecular target: Epidermal growth factor receptor (Homo sapiens, UniProt P00533)
Sequence (P00533 whole entry, the tested form may be a part): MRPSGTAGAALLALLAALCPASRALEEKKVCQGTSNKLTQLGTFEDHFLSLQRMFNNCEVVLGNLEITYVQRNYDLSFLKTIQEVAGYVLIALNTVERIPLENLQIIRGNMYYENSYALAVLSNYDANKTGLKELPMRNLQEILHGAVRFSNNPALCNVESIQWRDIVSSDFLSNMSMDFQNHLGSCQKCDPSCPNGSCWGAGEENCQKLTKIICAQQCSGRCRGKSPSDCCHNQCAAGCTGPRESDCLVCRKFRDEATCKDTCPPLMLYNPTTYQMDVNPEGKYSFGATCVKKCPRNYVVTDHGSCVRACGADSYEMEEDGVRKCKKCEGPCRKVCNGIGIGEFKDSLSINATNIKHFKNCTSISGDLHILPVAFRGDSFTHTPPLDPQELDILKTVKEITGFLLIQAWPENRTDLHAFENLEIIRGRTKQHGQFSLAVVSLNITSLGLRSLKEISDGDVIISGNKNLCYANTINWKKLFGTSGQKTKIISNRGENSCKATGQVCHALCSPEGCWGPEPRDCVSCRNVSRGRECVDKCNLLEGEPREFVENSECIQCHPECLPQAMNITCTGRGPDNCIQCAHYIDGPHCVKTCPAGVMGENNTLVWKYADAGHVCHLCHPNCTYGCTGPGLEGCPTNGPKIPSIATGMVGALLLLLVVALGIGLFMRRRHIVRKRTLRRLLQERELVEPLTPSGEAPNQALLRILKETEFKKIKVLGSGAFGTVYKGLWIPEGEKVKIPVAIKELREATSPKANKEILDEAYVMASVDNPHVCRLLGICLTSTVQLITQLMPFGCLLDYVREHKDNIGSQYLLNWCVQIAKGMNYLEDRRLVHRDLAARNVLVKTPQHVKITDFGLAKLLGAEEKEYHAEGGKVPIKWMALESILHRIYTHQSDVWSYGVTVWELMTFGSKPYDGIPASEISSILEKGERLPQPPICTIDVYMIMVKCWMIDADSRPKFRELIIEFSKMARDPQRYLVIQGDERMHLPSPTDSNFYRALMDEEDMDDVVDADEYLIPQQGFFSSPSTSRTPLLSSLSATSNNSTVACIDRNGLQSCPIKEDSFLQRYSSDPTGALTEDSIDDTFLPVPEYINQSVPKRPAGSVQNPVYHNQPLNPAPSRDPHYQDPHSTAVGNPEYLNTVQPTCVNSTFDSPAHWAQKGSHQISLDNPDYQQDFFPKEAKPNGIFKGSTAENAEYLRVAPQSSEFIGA
Assay: Inhibition of recombinant EGFR kinase cytoplasmic domain (unknown origin) expressed in baculovirus expression vector-infected insect sf9 cells assessed as level of autophosphorylation after 10 mins by DELFIA/time-resolved fluorometry
Conditions: not given

Point of comparison: `O=C(/C=C/c1cccnc1Cl)Nc1ccc2ncnc(Nc3cccc(Cl)c3)c2c1`, IC50 3.6 µM. Against it:
- Clc1cccc(Nc2ncnc3ccc(NCc4ccc(Br)s4)cc23)c1 — 2.4-fold lower, 1.5 µM
- Clc1cccc(Nc2ncnc3ccc(NCc4cccc(Br)n4)cc23)c1 — within 1.5-fold, 4.1 µM
- O=C(/C=C/c1cccnc1)Nc1ccc2ncnc(Nc3cccc(Cl)c3)c2c1 — within 1.5-fold, 4.7 µM
- Clc1cccc(Nc2ncnc3ccc(NCc4cccs4)cc23)c1 — within 1.5-fold, 3.4 µM
- O=C(/C=C/c1cccs1)Nc1ccc2ncnc(Nc3cccc(Cl)c3)c2c1 — 2.4-fold higher, 8.8 µM
- O=C(/C=C/c1ccc(Br)s1)Nc1ccc2ncnc(Nc3cccc(Cl)c3)c2c1 — 1.5-fold lower, 2.4 µM
- CSCCCNc1ccc2ncnc(Nc3cccc(Cl)c3)c2c1 — within 1.5-fold, 5.1 µM

Test system: A549
Assay: Induction of apoptosis in human A549 cells assessed as nuclear condensation after 24 hrs by Hoechst 33258 staining-based fluorescence microscopy relative to control
Assay type: functional, cell-based
Conditions: not given

For `Clc1cccc(Nc2ncnc3ccc(NCc4ccc(Br)s4)cc23)c1`, the Activity was “Dose-dependent effect”.

Test system: HepG2
Assay: Antiproliferative activity against human HepG2 cells after 48 hrs by MTT assay
Assay type: functional, cell-based
Conditions: HepG2, 48 h

Point of comparison: `O=C(/C=C/c1ncc2ccccc2n1)Nc1ccc2ncnc(Nc3cccc(Cl)c3)c2c1`, IC50 7.79 µM. Against it:
- Clc1cccc(Nc2ncnc3ccc(NCc4ccc(Br)s4)cc23)c1 — 2.5-fold lower, 3.11 µM
- Clc1cccc(Nc2ncnc3ccc(NCc4c[nH]c5ccccc45)cc23)c1 — within 1.5-fold, 5.26 µM
- O=C(/C=C/c1cccnc1Cl)Nc1ccc2ncnc(Nc3cccc(Cl)c3)c2c1 — 1.8-fold lower, 4.42 µM
- Clc1cccc(Nc2ncnc3ccc(NCc4ncc5ccccc5n4)cc23)c1 — within 1.5-fold, 5.65 µM
- Clc1cccc(Nc2ncnc3ccc(NCc4cccnc4)cc23)c1 — 1.9-fold lower, 4.14 µM
- Clc1cccc(Nc2ncnc3ccc(NCc4cccc(Br)n4)cc23)c1 — 2-fold lower, 3.87 µM
- Cc1cccc(/C=C/C(=O)Nc2ccc3ncnc(Nc4cccc(Cl)c4)c3c2)n1 — 1.6-fold lower, 4.82 µM
- O=C(/C=C/c1cccc(Br)n1)Nc1ccc2ncnc(Nc3cccc(Cl)c3)c2c1 — within 1.5-fold, 10.7 µM
- O=C(/C=C/c1c[nH]c2ccccc12)Nc1ccc2ncnc(Nc3cccc(Cl)c3)c2c1 — within 1.5-fold, 7.02 µM
- O=C(/C=C/c1cccnc1)Nc1ccc2ncnc(Nc3cccc(Cl)c3)c2c1 — within 1.5-fold, 9.12 µM
- CCCCNc1ccc2ncnc(Nc3cccc(Cl)c3)c2c1 — within 1.5-fold, 7.85 µM
- Clc1cccc(Nc2ncnc3ccc(NCc4cccs4)cc23)c1 — 2.2-fold lower, 3.58 µM
- O=C(/C=C/c1cccs1)Nc1ccc2ncnc(Nc3cccc(Cl)c3)c2c1 — within 1.5-fold, 10.4 µM
- O=C(/C=C/c1ccc(Br)s1)Nc1ccc2ncnc(Nc3cccc(Cl)c3)c2c1 — within 1.5-fold, 8.85 µM
- Cc1cccc(CNc2ccc3ncnc(Nc4cccc(Cl)c4)c3c2)n1 — 2.1-fold lower, 3.63 µM
- CSCCCNc1ccc2ncnc(Nc3cccc(Cl)c3)c2c1 — within 1.5-fold, 8.92 µM

Test system: A549
Assay: Induction of apoptosis in human A549 cells assessed as nuclear fragmentation at 5 to 20 uM after 24 hrs by Hoechst 33258 staining-based fluorescence microscopy relative to control
Assay type: functional, cell-based
Conditions: not given

`Clc1cccc(Nc2ncnc3ccc(NCc4ccc(Br)s4)cc23)c1` was tested, and the Activity was “Active”.

Test system: A549
Assay: Antiproliferative activity against human A549 cells after 48 hrs by MTT assay
Assay type: functional, cell-based
Conditions: A549, 48 h

Point of comparison: `Clc1cccc(Nc2ncnc3ccc(NCc4c[nH]c5ccccc45)cc23)c1`, IC50 2.33 µM. Against it:
- Clc1cccc(Nc2ncnc3ccc(NCc4ccc(Br)s4)cc23)c1 — 2.8-fold lower, 0.82 µM
- O=C(/C=C/c1cccnc1Cl)Nc1ccc2ncnc(Nc3cccc(Cl)c3)c2c1 — within 1.5-fold, 2.92 µM
- O=C(/C=C/c1ncc2ccccc2n1)Nc1ccc2ncnc(Nc3cccc(Cl)c3)c2c1 — within 1.5-fold, 3.35 µM
- Clc1cccc(Nc2ncnc3ccc(NCc4ncc5ccccc5n4)cc23)c1 — within 1.5-fold, 1.71 µM
- Clc1cccc(Nc2ncnc3ccc(NCc4cccnc4)cc23)c1 — within 1.5-fold, 2.67 µM
- Clc1cccc(Nc2ncnc3ccc(NCc4cccc(Br)n4)cc23)c1 — within 1.5-fold, 2.95 µM
- Cc1cccc(/C=C/C(=O)Nc2ccc3ncnc(Nc4cccc(Cl)c4)c3c2)n1 — within 1.5-fold, 2.16 µM
- O=C(/C=C/c1cccc(Br)n1)Nc1ccc2ncnc(Nc3cccc(Cl)c3)c2c1 — 1.8-fold higher, 4.16 µM
- O=C(/C=C/c1c[nH]c2ccccc12)Nc1ccc2ncnc(Nc3cccc(Cl)c3)c2c1 — 1.6-fold higher, 3.67 µM
- O=C(/C=C/c1cccnc1)Nc1ccc2ncnc(Nc3cccc(Cl)c3)c2c1 — 1.9-fold higher, 4.32 µM
- CCCCNc1ccc2ncnc(Nc3cccc(Cl)c3)c2c1 — 1.7-fold higher, 4.01 µM
- Clc1cccc(Nc2ncnc3ccc(NCc4cccs4)cc23)c1 — within 1.5-fold, 2.08 µM
- O=C(/C=C/c1cccs1)Nc1ccc2ncnc(Nc3cccc(Cl)c3)c2c1 — 4-fold higher, 9.31 µM
- O=C(/C=C/c1ccc(Br)s1)Nc1ccc2ncnc(Nc3cccc(Cl)c3)c2c1 — within 1.5-fold, 1.58 µM
- Cc1cccc(CNc2ccc3ncnc(Nc4cccc(Cl)c4)c3c2)n1 — 2.2-fold lower, 1.06 µM
- CSCCCNc1ccc2ncnc(Nc3cccc(Cl)c3)c2c1 — 1.6-fold higher, 3.82 µM

Test system: A549
Assay: Induction of apoptosis in human A549 cells assessed as nuclear fragmentation after 24 hrs by Hoechst 33258 staining-based fluorescence microscopy relative to control
Assay type: functional, cell-based
Conditions: not given

With `Clc1cccc(Nc2ncnc3ccc(NCc4ccc(Br)s4)cc23)c1` the Activity was “Dose-dependent effect”.

Test system: A549
Assay: Induction of apoptosis in human A549 cells assessed as nuclear condensation at 5 to 20 uM after 24 hrs by Hoechst 33258 staining-based fluorescence microscopy relative to control
Assay type: functional, cell-based
Conditions: not given

In the case of `Clc1cccc(Nc2ncnc3ccc(NCc4ccc(Br)s4)cc23)c1`, the Activity is reported as “Active”.
